Patent publication US5234925A (Dana-Farber Cancer Institute, Inc., priority 1991, dated 1993)
Read-outs that look alike come from different tables or passages of the source. Each block holds one molecule with its values, some of them ahead of it.

Assays:
[1] = target: T1, Mouse liver FPGS (Mus musculus, UniProt P48760); conditions: relative to folic acid (1.0); cited from earlier work
T1 sequence (P48760 43-587): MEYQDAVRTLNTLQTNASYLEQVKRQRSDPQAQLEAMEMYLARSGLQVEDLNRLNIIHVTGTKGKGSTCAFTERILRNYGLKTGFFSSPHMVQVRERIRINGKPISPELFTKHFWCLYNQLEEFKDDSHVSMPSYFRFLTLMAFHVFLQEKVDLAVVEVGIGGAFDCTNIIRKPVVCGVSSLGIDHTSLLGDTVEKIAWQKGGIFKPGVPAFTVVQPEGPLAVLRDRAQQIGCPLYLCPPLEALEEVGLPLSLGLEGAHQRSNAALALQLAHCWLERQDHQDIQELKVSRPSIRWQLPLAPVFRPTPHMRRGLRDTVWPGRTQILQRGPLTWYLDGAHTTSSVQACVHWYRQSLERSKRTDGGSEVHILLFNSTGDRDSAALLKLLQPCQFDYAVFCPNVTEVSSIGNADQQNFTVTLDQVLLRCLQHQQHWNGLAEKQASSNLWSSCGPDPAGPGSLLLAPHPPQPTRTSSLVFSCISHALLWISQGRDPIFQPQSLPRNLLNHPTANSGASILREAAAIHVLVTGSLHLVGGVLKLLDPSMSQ

[2] = tested on: L1210 cells; conditions: cited from earlier work; for IC50: 48 h, RPMI 1640 with 10% nondialyzed fetal calf serum
[3] = physiologic pH; cited from earlier work
[4] = compared with reduced folates and MTX; cited from earlier work
[5] = clinical trials; cited from earlier work
[6] = target: T2, L1210 TS (Mus musculus, UniProt P07607); conditions: cited from earlier work
T2 construct: purified TS from L1210 murine leukemic cells; endogenous in cells; host or cells: L1210 murine leukemic cells (enzyme purified from them)
T2 sequence (P07607 whole entry): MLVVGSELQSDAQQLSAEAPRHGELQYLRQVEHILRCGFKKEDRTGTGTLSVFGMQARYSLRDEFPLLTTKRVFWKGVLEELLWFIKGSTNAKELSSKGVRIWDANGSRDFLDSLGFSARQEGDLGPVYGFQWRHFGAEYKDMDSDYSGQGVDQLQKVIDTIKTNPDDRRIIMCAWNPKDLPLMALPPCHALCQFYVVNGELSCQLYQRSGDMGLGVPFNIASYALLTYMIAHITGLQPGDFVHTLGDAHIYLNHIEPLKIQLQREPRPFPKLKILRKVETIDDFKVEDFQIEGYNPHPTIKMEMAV

[7] = target: T2, L1210 TS; experiment: Inhibition of purified TS from L1210 murine leukemic cells (3H release assay); type: biochemical
Experimental: ^b Inhibition of purified TS from L1210 cells was determined by the
^3 Hrelease assay method as described previously (Sikora et al.)

[8] = target: T1, Mouse liver FPGS; experiment: Substrate activity for partially purified FPGS from mouse liver; type: biochemical
Description: ^c Substrate activity for partially purified FPGS from mouse liver wa
determined as described previously (Moran et al., Mol. Pharmacol. 27:156,
1985), with relative Vmax and k' values expressed in comparison with […]

[9] = tested on: L1210 cells; experiment: Inhibition of growth of L1210 cells in culture; type: cell-based, murine; conditions: for IC50: Mus musculus, L1210
Experimental: ^d Cells were incubated in RPMI 1640 medium supplemented with 10%
nondialyzed fetal calf serum, and were counted after 48 h of drug
^e The IC50 for cells grown in the presence of 10 μM dThd
increased only to 0.84 μM.
It was therefore of interest to determine whether 2-aza analogues such as 10 also require both dThd and HX for complete protection from their growth inhibitory effect.

SMILES: Nc1nc2ccc(CNc3ccc(C(=O)N[C@@H](CCC(=O)O)C(=O)O)cc3)cc2c(=O)[nH]1 [Compound 1, 5,8-Dideazafolic Acid]
Vmax (rel), Mouse liver FPGS [1]: 1.3
k'(rel), Mouse liver FPGS [1]: 29
IC50 [2]: 2.7 µM

SMILES: C#CCN(Cc1ccc2nc(N)[nH]c(=O)c2c1)c1ccc(C(=O)N[C@@H](CCC(=O)O)C(=O)O)cc1 [Compound 2, N^10 -Propargyl-5,8-dideazafolic Acid]
Vmax (rel), Mouse liver FPGS [1]: 0.88
k'(rel), Mouse liver FPGS [1]: 2.3
reversal of inhibitory effect on growth of L1210 cells by thymidine plus folinic acid ([2]; 5 μM dThd and 5 μM folinic acid): restored to normal levels
reversal of inhibitory effect on growth of L1210 cells by thymidine ([2]; 10 μM thymidine alone): not fully reversed
reversal of inhibitory effect on growth of L1210 cells by thymidine plus hypoxanthine ([2]; 10 μM thymidine and 50 μM hypoxanthine): restored to normal levels
IC50 [2]: 3.5 µM
solubility [3]: low solubility at physiologic pH
transport mechanism of cell entry [4]: distinct from that of reduced folates and MTX
toxicities in clinical use [5]: hepatic and renal toxicities

SMILES: O=C(O)CC[C@H](NC(=O)c1ccc(NCc2ccc3nc[nH]c(=O)c3c2)cc1)C(=O)O [Compound 3, 2-Desamino-5,8-dideazafolic Acid]
Ki ([6]; purified TS from L1210 cells, Table 1, read-out: Ki, L1210 TS): 2 µM
Ki ([6]; reported previously (Jackman et al.), read-out: Ki for TS inhibition): 2 µM
Vmax (rel), Mouse liver FPGS [1]: 1.3
k'(rel), Mouse liver FPGS [1]: 29
IC50 [2]: 0.43 µM

increase in TS binding ([7]; 10 versus 2-desamino analogue 3): ca. sixfold
Ki ([7]; purified TS from L1210 cells, Table 1): 0.33 µM
k'(rel) lower than the k'(rel) of 1 or 3 ([8]; ratio 10 versus 1 or 3): 4.6 -fold
k'(rel) greater than that for CB3717 ([8]; ratio 10 versus CB3717): twofold
Vmax (rel), Mouse liver FPGS ([8]; relative to folic acid (1.0)): 1.6
k'(rel), Mouse liver FPGS ([8]; relative to folic acid (1.0), Km (app) divided into Vmax (rel)): 6.3
difference in IC50 with and without dThd ([9]; L1210 cells, dThd 0.84 versus 0.42 μM): twofold
IC50 ([9]; 10 μM dThd (footnote e), read-out: IC50, L1210 cells grown in the presence of dThd): 0.84 µM
IC50 ([9]; 48 h, RPMI 1640 with 10% nondialyzed fetal calf serum, without dThd, read-out: IC50, L1210 cells): 0.42 µM
SMILES: O=C(O)CC[C@H](NC(=O)c1ccc(NCc2ccc3nn[nH]c(=O)c3c2)cc1)C(=O)O [Compound 10, N-[4-(1,2,3-Benzotriazin-4(3H)-on-6-yl)methyl] aminobenzoyl-L-glutamic Acid]
difference in IC50 with and without dThd compared with 1, 2 and 3 ([9]; L1210 cells): comparable to that reported for 1 and 3, but much lower than that reported for 2
potency against cultured cells relative to 2-desamino-5,8-dideazafolate ([9]; L1210 cells, 10 versus 3): comparable
